Assay results as given in article PMC6757289, “Design and Characterization of SGK3-PROTAC1, an Isoform Specific SGK3 Kinase PROTAC Degrader” (ACS Chemical Biology, 2019).
Read-outs that look alike come from different tables or passages of the source.

Key:
Assay in all cases: kinase profiling panel
Assay type in all cases: biochemical
Conditions in all cases: read-out: % Activity Remaining
CK2 = CK2 (Homo sapiens, UniProt P68400)
Excerpt: (§1) Protein kinase profiling against a Dundee panel of 140 protein kinases was undertaken at the International Centre for Protein Kinase Profiling. The result for each kinase was presented as a mean kinase activity of the reaction taken in triplicate relative to a control sample treated with DMSO. Assay conditions and abbreviations are available at http://www.kinase-screen.mrc.ac.uk.

EIF2AK3 = biological target: T1, EIF2AK3 (Homo sapiens, UniProt Q9NZJ5)
T1 sequence (Q9NZJ5 30-1116): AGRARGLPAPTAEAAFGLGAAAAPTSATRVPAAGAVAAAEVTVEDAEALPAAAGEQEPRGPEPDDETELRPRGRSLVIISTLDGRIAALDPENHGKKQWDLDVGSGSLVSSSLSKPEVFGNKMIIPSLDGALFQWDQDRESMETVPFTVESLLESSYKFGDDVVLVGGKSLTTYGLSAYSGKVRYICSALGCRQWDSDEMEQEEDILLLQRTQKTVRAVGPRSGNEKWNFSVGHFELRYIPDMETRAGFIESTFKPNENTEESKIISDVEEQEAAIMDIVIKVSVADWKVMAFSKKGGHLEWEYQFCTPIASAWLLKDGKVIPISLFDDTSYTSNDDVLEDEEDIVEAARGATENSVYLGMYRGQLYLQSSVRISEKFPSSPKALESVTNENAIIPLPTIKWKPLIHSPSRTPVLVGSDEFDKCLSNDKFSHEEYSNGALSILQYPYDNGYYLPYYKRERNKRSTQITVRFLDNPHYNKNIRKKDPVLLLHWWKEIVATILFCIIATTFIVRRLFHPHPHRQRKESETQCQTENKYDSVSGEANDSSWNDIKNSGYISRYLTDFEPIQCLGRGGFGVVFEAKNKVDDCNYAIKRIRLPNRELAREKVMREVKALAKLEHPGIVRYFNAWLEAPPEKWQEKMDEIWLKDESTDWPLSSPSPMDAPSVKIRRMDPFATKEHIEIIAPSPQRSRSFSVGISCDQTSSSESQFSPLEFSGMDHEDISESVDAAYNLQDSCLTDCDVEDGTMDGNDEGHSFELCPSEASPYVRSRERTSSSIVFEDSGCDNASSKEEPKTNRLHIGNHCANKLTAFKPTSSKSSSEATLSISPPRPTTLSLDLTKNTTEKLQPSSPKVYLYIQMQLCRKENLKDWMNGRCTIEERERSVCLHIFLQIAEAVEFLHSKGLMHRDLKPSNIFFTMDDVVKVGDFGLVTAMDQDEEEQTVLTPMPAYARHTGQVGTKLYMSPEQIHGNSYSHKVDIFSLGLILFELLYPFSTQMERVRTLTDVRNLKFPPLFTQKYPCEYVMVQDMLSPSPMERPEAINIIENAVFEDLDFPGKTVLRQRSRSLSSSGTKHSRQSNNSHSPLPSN
Excerpt: as §1

MARK1 = MARK1 (Homo sapiens, UniProt Q9P0L2)
MARK1, sequence (Q9P0L2 whole entry): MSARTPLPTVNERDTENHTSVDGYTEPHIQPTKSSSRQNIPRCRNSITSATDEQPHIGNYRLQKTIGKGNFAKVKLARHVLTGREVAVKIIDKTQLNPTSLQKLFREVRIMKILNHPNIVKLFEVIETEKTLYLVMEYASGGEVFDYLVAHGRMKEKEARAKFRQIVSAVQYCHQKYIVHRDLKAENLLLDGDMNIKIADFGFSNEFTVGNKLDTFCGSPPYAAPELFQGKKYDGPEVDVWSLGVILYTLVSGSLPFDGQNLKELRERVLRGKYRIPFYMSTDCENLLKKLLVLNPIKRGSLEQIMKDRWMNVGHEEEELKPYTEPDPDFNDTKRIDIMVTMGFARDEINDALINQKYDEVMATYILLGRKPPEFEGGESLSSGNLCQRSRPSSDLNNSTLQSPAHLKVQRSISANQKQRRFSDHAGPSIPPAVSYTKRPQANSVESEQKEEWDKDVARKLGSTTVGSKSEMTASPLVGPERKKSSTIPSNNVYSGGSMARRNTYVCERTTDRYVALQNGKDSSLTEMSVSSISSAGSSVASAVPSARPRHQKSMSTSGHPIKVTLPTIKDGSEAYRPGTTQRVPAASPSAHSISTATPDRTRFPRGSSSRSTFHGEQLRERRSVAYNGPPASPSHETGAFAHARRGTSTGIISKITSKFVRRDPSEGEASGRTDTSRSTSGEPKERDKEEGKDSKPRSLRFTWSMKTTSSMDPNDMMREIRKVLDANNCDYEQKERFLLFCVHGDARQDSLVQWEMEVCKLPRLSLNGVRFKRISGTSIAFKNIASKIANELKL
Excerpt: as §1

MNK2 = MNK2 (Homo sapiens, UniProt Q9HBH9)
MNK2, sequence (Q9HBH9 whole entry): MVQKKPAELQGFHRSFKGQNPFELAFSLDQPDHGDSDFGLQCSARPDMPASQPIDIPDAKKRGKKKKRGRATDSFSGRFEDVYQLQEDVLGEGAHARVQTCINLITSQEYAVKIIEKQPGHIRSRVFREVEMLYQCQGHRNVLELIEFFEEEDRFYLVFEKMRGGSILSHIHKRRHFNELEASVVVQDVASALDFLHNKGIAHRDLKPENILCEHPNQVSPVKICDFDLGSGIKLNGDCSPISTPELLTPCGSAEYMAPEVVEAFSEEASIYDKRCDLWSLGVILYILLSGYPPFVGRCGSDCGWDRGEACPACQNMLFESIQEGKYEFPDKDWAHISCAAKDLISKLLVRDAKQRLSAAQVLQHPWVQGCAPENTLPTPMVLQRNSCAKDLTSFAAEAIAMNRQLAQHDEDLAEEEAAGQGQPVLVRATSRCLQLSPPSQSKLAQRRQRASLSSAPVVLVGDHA
Excerpt: as §1

PAK5 = PAK5 (Homo sapiens, UniProt Q9P286)
PAK5, sequence (Q9P286 whole entry): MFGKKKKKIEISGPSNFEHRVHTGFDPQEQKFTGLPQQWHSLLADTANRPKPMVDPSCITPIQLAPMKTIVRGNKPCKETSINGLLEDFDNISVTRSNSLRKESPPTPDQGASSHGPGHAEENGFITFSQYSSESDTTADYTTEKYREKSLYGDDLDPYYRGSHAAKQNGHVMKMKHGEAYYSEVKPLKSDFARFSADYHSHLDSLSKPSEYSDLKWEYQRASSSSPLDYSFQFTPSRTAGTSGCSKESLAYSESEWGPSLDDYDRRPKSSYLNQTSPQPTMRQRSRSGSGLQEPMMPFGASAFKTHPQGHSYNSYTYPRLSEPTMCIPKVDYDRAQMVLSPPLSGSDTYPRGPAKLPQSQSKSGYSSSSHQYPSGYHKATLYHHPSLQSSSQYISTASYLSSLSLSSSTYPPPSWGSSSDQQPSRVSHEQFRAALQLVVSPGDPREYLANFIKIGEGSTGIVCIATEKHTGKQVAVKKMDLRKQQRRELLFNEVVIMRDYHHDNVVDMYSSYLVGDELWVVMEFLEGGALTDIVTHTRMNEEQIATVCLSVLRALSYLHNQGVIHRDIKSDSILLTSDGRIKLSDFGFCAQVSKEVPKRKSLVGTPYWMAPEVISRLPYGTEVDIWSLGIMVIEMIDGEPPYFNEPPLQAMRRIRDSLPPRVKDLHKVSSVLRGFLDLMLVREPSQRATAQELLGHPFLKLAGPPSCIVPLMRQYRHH
Excerpt: as §1

PRAK = biological target: T2, PRAK (Homo sapiens, UniProt Q8IW41)
T2 sequence (Q8IW41 1-473): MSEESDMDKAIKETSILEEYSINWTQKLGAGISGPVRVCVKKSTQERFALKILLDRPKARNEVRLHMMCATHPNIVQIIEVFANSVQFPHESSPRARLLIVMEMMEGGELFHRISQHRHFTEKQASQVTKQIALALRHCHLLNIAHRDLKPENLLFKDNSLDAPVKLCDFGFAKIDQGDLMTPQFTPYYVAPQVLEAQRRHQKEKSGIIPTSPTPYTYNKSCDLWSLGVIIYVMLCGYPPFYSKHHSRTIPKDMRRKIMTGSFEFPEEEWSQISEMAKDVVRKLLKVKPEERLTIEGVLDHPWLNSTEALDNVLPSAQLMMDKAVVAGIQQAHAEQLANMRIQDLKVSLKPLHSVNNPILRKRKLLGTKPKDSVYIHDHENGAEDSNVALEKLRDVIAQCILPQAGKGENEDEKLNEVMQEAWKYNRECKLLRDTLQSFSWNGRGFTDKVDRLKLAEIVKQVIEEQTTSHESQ
Excerpt: as §1

ULK2 = biological target: T3, ULK2 (Homo sapiens, UniProt Q8IYT8)
T3 sequence (Q8IYT8 1-1036): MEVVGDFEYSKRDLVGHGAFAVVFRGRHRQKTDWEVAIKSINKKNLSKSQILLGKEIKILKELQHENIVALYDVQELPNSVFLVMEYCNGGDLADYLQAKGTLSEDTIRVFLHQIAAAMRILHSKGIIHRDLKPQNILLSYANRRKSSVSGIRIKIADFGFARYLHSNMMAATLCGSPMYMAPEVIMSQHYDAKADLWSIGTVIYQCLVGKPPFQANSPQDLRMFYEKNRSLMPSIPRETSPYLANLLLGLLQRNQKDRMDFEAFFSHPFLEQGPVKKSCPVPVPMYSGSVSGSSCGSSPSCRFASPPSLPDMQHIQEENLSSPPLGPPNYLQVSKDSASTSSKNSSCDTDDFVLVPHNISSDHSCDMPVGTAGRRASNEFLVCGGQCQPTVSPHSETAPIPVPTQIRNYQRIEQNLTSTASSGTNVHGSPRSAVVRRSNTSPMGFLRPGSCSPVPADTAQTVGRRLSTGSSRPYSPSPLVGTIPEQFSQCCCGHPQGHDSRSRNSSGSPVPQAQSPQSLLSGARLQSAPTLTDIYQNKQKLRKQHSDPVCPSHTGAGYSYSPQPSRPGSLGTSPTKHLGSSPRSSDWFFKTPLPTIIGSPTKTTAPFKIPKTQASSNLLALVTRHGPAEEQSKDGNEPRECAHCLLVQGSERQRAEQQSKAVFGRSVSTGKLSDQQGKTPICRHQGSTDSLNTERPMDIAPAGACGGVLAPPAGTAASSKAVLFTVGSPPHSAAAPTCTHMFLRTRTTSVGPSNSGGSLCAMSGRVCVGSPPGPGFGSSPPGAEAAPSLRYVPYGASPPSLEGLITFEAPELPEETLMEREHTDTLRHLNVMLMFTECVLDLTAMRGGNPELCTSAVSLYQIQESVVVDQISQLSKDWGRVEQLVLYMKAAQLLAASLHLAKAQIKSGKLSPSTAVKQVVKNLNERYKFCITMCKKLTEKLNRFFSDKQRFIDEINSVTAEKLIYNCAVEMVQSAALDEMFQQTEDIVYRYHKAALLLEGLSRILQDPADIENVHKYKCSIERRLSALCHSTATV
Excerpt: as §1

CK2, sequence (P68400 whole entry): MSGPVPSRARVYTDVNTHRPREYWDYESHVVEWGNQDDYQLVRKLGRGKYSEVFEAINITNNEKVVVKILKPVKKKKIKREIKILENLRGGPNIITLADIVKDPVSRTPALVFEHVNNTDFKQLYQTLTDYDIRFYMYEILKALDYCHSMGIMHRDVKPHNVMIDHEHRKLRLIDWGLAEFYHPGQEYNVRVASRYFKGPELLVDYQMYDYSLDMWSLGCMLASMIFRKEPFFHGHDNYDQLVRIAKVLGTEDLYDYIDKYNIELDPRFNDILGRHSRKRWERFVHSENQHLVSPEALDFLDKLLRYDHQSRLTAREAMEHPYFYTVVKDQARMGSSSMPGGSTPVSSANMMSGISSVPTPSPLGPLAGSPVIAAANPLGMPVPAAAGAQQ

Compound | remaining activity at 1 µM (CK2; 1 µM) | remaining activity at 1 µM (EIF2AK3) | remaining activity at 1 µM (MARK1) | remaining activity at 1 µM (MNK2) | remaining activity at 1 µM (PAK5) | remaining activity at 1 µM (PRAK) | remaining activity at 1 µM (ULK2) | remaining activity at 1 µM (CK2) | remaining activity at 1 µM (EIF2AK3; 1 µM) | remaining activity at 1 µM (MARK1; 1 µM) | remaining activity at 1 µM (MNK2; 1 µM) | remaining activity at 1 µM (PAK5; 1 µM) | remaining activity at 1 µM (PRAK; 1 µM) | remaining activity at 1 µM (ULK2; 1 µM)
COc1ccc(Cl)c(S(=O)(=O)Nc2ccc(-c3nc(OC[C@H]4CNCCO4)c4c(C)n[nH]c4n3)cc2)c1 [290-R, reference compound] | 100% | 66% | 115% | 119% | 110% | 78% | 46% |  |  |  |  |  |  | 
Cc1ccc(F)c(S(=O)(=O)Nc2ccc(-c3nc(OC[C@H]4CNCCO4)c4cn[nH]c4n3)cc2)c1 [308-R, reference compound] |  | 63% | 109% | 78% | 83% | 86% | 59% | 103% |  |  |  |  |  | 
Cc1ccc(F)c(S(=O)(=O)Nc2ccc(-c3nc(OC[C@H]4CN(CCCCCCOCCOCCOCC(=O)N[C@H](C(=O)N5C[C@H](O)C[C@H]5C(=O)NCc5ccc(-c6scnc6C)cc5)C(C)(C)C)CCO4)c4cn[nH]c4n3)cc2)c1 [SGK3-PROTAC1] | 90% |  |  |  |  |  |  |  | 106% | 99% | 122% | 88% | 115% | 103%
Cc1ccc(F)c(S(=O)(=O)Nc2ccc(-c3nc(OC[C@H]4CN(CCCCCCOCCOCCOCC(=O)N[C@H](C(=O)N5C[C@@H](O)C[C@H]5C(=O)NCc5ccc(-c6scnc6C)cc5)C(C)(C)C)CCO4)c4cn[nH]c4n3)cc2)c1 [cisSGK3-PROTAC1] | 96% |  |  |  |  |  |  |  | 111% | 93% | 122% | 105% | 119% | 117%
